Patent US20170008921A1, “C-3 NOVEL TRITERPENONE WITH C-28 REVERSE AMIDE DERIVATIVES AS HIV INHIBITORS” (HETERO RESEARCH FOUNDATION, priority 2015, published 2017)

Columns and labels:
[1] = Cyto-toxicity (MTT assay); assay type: cell-based
[2] = Single dose oral pharmacokinetic study; assay type: in vivo; conditions: mouse, Mice oral PK @30 mg/kg, plasma, vehicle 10% Solutol+20% PEG; for AUC(0-t): read-out: AUC0-t; for Cmax: read-out: Cmax
Summary of the method: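 Rats or mice dosed orally at 30 mg/kg in 10% Solutol+20% PEG. Acetonitrile precipitation, then LC-MS/MS quantification for PK parameters.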

Structure (SMILES) | viability at 4 days, 0.01 µM [1] [%] | viability at 4 days, 0.1 µM [1] [%] | viability at 4 days, 1 µM [1] [%] | AUC(0-t) [2] [µg·h/mL] | Cmax [2] [ng/mL] | viability at 4 days, 0.001 µM [1] [%] | viability at 4 days, 0.003 µM [1] [%]
CC(C)C1=C2[C@H]3CC[C@@H]4[C@@]5(C)CC[C@H](OC(=O)[C@@H]6C[C@H](C(=O)O)C6(C)C)C(C)(C)[C@@H]5CC[C@@]4(C)[C@]3(C)CC[C@@]2(NC(=O)C(C)(C)NC(=O)c2ccc(Cl)cc2)CC1=O [Example 21, (1S,3R)-3-((((3aR,5aR,5bR,7aR,9S,11aR,11bR,13aS)-3a-(2-(4-chlorobenzamido)-2-methylpropanamido)-1-isopropyl-5a,5b,8,8,11a-pentamethyl-2-oxo-3,3a,4,5,5a,5b,6,7,7a,8,9,10,11,11a,11b,12,13,13a-octadecahydro-2H-cyclopenta[a]chrysen-9-yl)oxy)carbonyl)-2,2-dimethylcyclobutane-1-carboxylic acid] | 36 | 7 | 6 | 191 | 16000 | – | –
CC(C)C1=C2[C@H]3CC[C@@H]4[C@@]5(C)CC[C@H](OC(=O)[C@H]6C[C@@H](C(=O)O)C6(C)C)C(C)(C)[C@@H]5CC[C@@]4(C)[C@]3(C)CC[C@@]2(NC(=O)C(C)(C)NC(=O)c2cccnc2N2CCOCC2)CC1=O [Example 31, (1R,3S)-3-((((3aR,5aR,5bR,7aR,9S,11aR,11bR,13aS)-1-isopropyl-5a,5b,8,8,11a-pentamethyl-3a-(2-methyl-2-(2-morpholinonicotinamido)propan amido)-2-oxo-3,3a,4,5,5a,5b,6,7,7a,8,9,10,11,11a,11b,12,13,13a-octadecahydro-2H-cyclopenta[a]chrysen-9-yl)oxy)carbonyl)-2,2-dimethylcyclobutane-1-carboxylic acid] | 54 | – | – | 255 | 18700 | 81 | 86
Cc1ccc(C(=O)NC2(C(=O)N[C@@]34CC[C@]5(C)[C@H](CC[C@@H]6[C@@]7(C)CC[C@H](OC(=O)[C@H]8C[C@@H](C(=O)O)C8(C)C)C(C)(C)[C@@H]7CC[C@]65C)C3=C(C(C)C)C(=O)C4)CCC2)cn1 [Example 43, (1R,3S)-3-((((3aR,5aR,5bR,7aR,9S,11aR,11bR,13aS)-1-isopropyl-5a,5b,8,8,11a-pentamethyl-3a-(1-(6-methylnicotinamido)cyclobutane-1-carboxamido)-2-oxo-3,3a,4,5,5a,5b,6,7,7a,8,9,10,11,11a,11b,12,13,13a-octadecahydro-2H-cyclopenta[a]chrysen-9-yl)oxy)carbonyl)-2,2-dimethylcyclobutane-1-carboxylic acid] | 76 | 26 | 3 | 320 | 31300 | – | –
CCOC(=O)NC(C)(C)C(=O)N[C@@]12CC[C@]3(C)[C@H](CC[C@@H]4[C@@]5(C)CC[C@H](OC(=O)[C@H]6C[C@@H](C(=O)O)C6(C)C)C(C)(C)[C@@H]5CC[C@]43C)C1=C(C(C)C)C(=O)C2 [Example 64, (1R,3S)-3-((((3aR,5aR,5bR,7aR,9S,11aR,11bR,13aS)-3a-(2-((ethoxycarbonyl)amino)-2-methylpropanamido)-1-isopropyl-5a,5b. 8,8,11a-pentamethyl-2-oxo-3,3a,4,5,5a,5b,6,7,7a,8,9,10,11,11a,11b,12,13,13a-octadecahydro-2H-cyclopenta[a]chrysen-9-yl)oxy)carbonyl)-2,2-dimethylcyclobutane-1-carboxylic acid] | 26 | 2 | 1 | 336 | 27400 | – | –
Cc1cnc(C(=O)NC(C)(C)C(=O)N[C@@]23CC[C@]4(C)[C@H](CC[C@@H]5[C@@]6(C)CC[C@H](OC(=O)[C@H]7C[C@@H](C(=O)O)C7(C)C)C(C)(C)[C@@H]6CC[C@]54C)C2=C(C(C)C)C(=O)C3)cn1 [Example 7, (1R,3S)-3-((((3aR,5aR,5bR,7aR,9S,11aR,11bR,13aS)-1-isopropyl-5a,5b,8,8,11a-pentamethyl-3a-(2-methyl-2-(5-methylpyrazine-2-carboxamido)propanamido)-2-oxo-3,3a,4,5,5a,5b,6,7,7a,8,9,10,11,11a,11b,12,13,13a-octadecahydro-2H-cyclopenta[a]chrysen-9-yl)oxy)carbonyl)-2,2-dimethylcyclobutane-1-carboxylic acid] | 28 | 9 | 0 | 517 | 41900 | – | –
Cc1ccc(C(=O)NC2(C(=O)N[C@@]34CC[C@]5(C)[C@H](CC[C@@H]6[C@@]7(C)CC[C@H](OC(=O)[C@H]8C[C@@H](C(=O)O)C8(C)C)C(C)(C)[C@@H]7CC[C@]65C)C3=C(C(C)C)C(=O)C4)CCCCC2)cc1 [Example 50, (1R,3S)-3-((((3aR,5aR,5bR,7aR,9S,11aR,11bR,13aS)-1-isopropyl-5a,5b,8,8,11a-pentamethyl-3a-(1-(4-methylbenzamido)cyclohexane-1-carboxamido)-2-oxo-3,3a,4,5,5a,5b,6,7,7a,8,9,10,11,11a,11b,12,13,13a-octadecahydro-2H-cyclopenta[a]chrysen 9-yl)oxy)carbonyl)-2,2-dimethylcyclobutane-1-carboxylic acid] | 21 | 0 | 0 | 454 | 23300 | – | –
Cc1ccc(C(=O)NC(C)(C)C(=O)N[C@@]23CC[C@]4(C)[C@H](CC[C@@H]5[C@@]6(C)CC[C@H](OC(=O)[C@H]7C[C@@H](C(=O)O)C7(C)C)C(C)(C)[C@@H]6CC[C@]54C)C2=C(C(C)C)C(=O)C3)cn1 [Example 61, (1R,3S)-3-((((3aR,5aR,5bR,7aR,9S,11aR,11bR,13aS)-1-isopropyl-5a,5b,8,8,11a-pentamethyl-3a-(2-methyl-2-(6-methylnicotinamido)propanamido)-2-oxo-3,3a,4,5,5a,5b,6,7,7a,8,9,10,11,11a,11b,12,13,13a-octadecahydro-2H-cyclopenta[a]chrysen-9-yl)oxy)carbonyl)-2,2-dimethylcyclobutane-1-carboxylic acid] | 88 | 42 | 2 | 615 | 45700 | – | –
CC(C)C1=C2[C@H]3CC[C@@H]4[C@@]5(C)CC[C@H](OC(=O)[C@H]6C[C@@H](C(=O)O)C6(C)C)C(C)(C)[C@@H]5CC[C@@]4(C)[C@]3(C)CC[C@@]2(NC(=O)C(C)(C)NC(=O)CN2CCCCC2)CC1=O [Example 10, (1R,3S)-3-((((3aR,5aR,5bR,7aR,9S,11aR,11bR,13aS)-1-isopropyl-5a,5b,8,8,11a-pentamethyl-3a-(2-methyl-2-(2-(piperidin-1-yl)acetamido)propan amido)-2-oxo-3,3a,4,5,5a,5b,6,7,7a,8,9,10,11,11a,11b,12,13,13a-octadecahydro-2H-cyclopenta[a]chrysen-9-yl)oxy)carbonyl)-2,2-dimethylcyclobutane-1-carboxylic acid] | 67 | 1 | 0 | 69.8 | 9790 | – | –
CC(C)C1=C2[C@H]3CC[C@@H]4[C@@]5(C)CC[C@H](OC(=O)[C@H]6C[C@@H](C(=O)O)C6(C)C)C(C)(C)[C@@H]5CC[C@@]4(C)[C@]3(C)CC[C@@]2(NC(=O)C2(NC(=O)c3ccc(Cl)cc3)CCC2)CC1=O [Example 42, (1R,3S)-3-((((3aR,5aR,5bR,7aR,9S,11aR,11bR,13aS)-3a-(1-(4-chlorobenzamido)cyclobutane-1-carboxamido)-1-isopropyl-5a,5b,8,8,11a-pentamethyl-2-oxo-3,3a,4,5,5a,5b,6,7,7a,8,9,10,11,11a,11b,12,13,13a-octadecahydro-2H-cyclopenta[a]chrysen-9-yl)oxy)carbonyl)-2,2-dimethylcyclobutane-1-carboxylic acid] | 27 | 5 | 4 | 481 | 22900 | – | –
CC(C)C1=C2[C@H]3CC[C@@H]4[C@@]5(C)CC[C@H](OC(=O)[C@H]6C[C@@H](C(=O)O)C6(C)C)C(C)(C)[C@@H]5CC[C@@]4(C)[C@]3(C)CC[C@@]2(NC(=O)C(C)(C)NC(=O)c2cnccn2)CC1=O [Example 5, (1R,3S)-3-((((3aR,5aR,5bR,7aR,9S,11aR,11bR,13aS)-1-isopropyl-5a,5b,8,8,11a-pentamethyl-3a-(2-methyl-2-(pyrazine-2-carboxamido)propanamido)-2-oxo-3,3a,4,5,5a,5b,6,7,7a,8,9,10,11,11a,11b,12,13,13a-octadecahydro-2H-cyclopenta[a]chrysen-9-yl)oxy)carbonyl)-2,2-dimethylcyclobutane-1-carboxylic acid] | 74 | 35 | 4 | 289 | 26000 | – | –
CC(C)C1=C2[C@H]3CC[C@@H]4[C@@]5(C)CC[C@H](OC(=O)[C@H]6C[C@@H](C(=O)O)C6(C)C)C(C)(C)[C@@H]5CC[C@@]4(C)[C@]3(C)CC[C@@]2(NC(=O)C(C)(C)NCc2ccccn2)CC1=O [Example 67, (1R,3S)-3-((((3aR,5aR,5bR,7aR,9S,11aR,11bR,13aS)-1-isopropyl-5a,5b,8,8,11a-pentamethyl-3a-(2-methyl-2-((pyridin-2-ylmethyl)amino)propan amido)-2-oxo-3,3a,4,5,5a,5b,6,7,7a,8,9,10,11,11a,11b,12,13,13a-octadecahydro-2H-cyclopenta[a]chrysen-9-yl)oxy)carbonyl)-2,2-dimethylcyclobutane-1-carboxylic acid] | 59 | 21 | 3 | 86.6 | 24300 | – | –
